This is an account of results in ChEMBL document CHEMBL1157539, “Thousands of chemical starting points for antimalarial lead identification” (Nature, 2010).

For this assay, the system named is Plasmodium falciparum. Description: GSK_TCMDC: Inhibition of Plasmodium falciparum 3D7 in whole erythrocytes, using parasite LDH activity as an index of growth. The class given is functional, organism-based. To be noted: Plasmodium falciparum, 3D7.
In turn, `CC(C)n1c(C(C)(C)C)cc2c3c(N)nc(N)nc3ccc21` gave an XC50 of 3.2 nM.
`O=C(Nc1ccc(C(F)(F)F)cc1)N[C@H]1CCN(CCCCCNC(=O)C2CC2c2ccc(Cl)c(Cl)c2)C1` (stereo not given in full) gave an XC50 of 1100 nM.
The figure for `CCCCCCc1cc(OC)c(OC)cc1C(C)Nc1ccnc2cc(Cl)ccc12` (stereo not given) is 488 nM; for `CC(CN(C)C)C(=O)Nc1ccc(-c2ccc(-c3nc4cc(F)ccc4[nH]3)cc2)cc1` (stereo not given) it is 773 nM; for `COc1cccc(Nc2nc(N)c3ccccc3n2)c1` it is 934 nM.
In turn, `CCCCCCCCNCCCSCCCNCCCCCCCC` had an XC50 of 1230 nM.
The figure for `CN(C)CCNc1cc(-c2ccc3ccccc3c2)nc2ccccc12` is 350 nM; for `O=[N+]([O-])c1nc(Br)n(Cc2ccc(Cl)cc2)n1` it is 360 nM.
`O=c1cc(NCCC(CNCc2ccc(Br)o2)NCc2cc(Br)cc(Br)c2)[nH]c2ccccc12` (stereo not given) yielded an XC50 of 860 nM.
The molecule `N=C(/N=C(/NCCCCCCN/C(=N\C(=N)Nc1ccc(Cl)cc1)N1CCCCC1)N1CCCCC1)Nc1ccc(Cl)cc1` came in with an XC50 of 256 nM.
Turning to `FC(F)(F)c1ccc(-c2cncc(-c3ccc(C(F)(F)F)cc3)n2)cc1`, the XC50 is 759 nM.
On to `Cc1nc(C)c(-c2ccc(Oc3ccc(Cl)cc3)cc2)c(O)c1I`, for which the XC50 is 957 nM.
In the case of `Cc1c(C(C)(C)C)ccc2nc(N)nc(N)c12` it was 8.73 nM; in that of `CCC(=O)Nc1nnc(Cc2ccc(OC)c(OC)c2)s1`, 910 nM; in that of `O=C(NCc1cccc(C(F)(F)F)c1)c1ccc(-c2nc3cc(F)c(F)cc3[nH]2)cc1`, 776 nM.
Molecule `O=C(/C=C/c1ccc(Cl)c(Cl)c1)N1CCC(CN2CCC(c3c(-c4ccc(F)cc4)[nH]c4ccccc34)CC2)CC1` returned an XC50 of 175 nM.
In the case of `CC(C)CNCc1cccc(-c2ccccc2CN(C(=O)NCCc2ccccc2)C2CCN(Cc3ccccc3)CC2)c1` it was 1170 nM; in that of `C=C[C@H]1CN2CC[C@H]1C[C@H]2[C@H](OS(=O)(=O)O)c1ccnc2ccccc12`, 624 nM.
Molecule `CC(C)C[C@H](NC(=O)c1cc2ccccc2s1)C(=O)N[C@H]1CCN(Cc2ccc(OC3CCN(C)C3)c(Cl)c2)C1` (stereo not given in full) came in with an XC50 of 782 nM.
For the molecule `CCNc1cc(C(=O)N[C@@H](Cc2ccccc2)[C@H](O)CNC(C)(C)c2cccc(OC)c2)cc(N2CCCC2=O)c1`, the XC50 was 143 nM.
Take `Cc1ccccc1C1CCN(C2CCC(NC(=O)/C=C/c3cc(F)cc(F)c3)CC2)CC1` (stereo not given): the XC50 was 833 nM.
For the molecule `CCCCCN1CCC(NS(=O)(=O)c2cccc(C(=O)Nc3ccc(C(F)(F)F)cc3)c2)C1` (stereo not given), the XC50 amounted to 798 nM.
The figure for `CCCCCN1CCCC(NS(=O)(=O)c2ccc(C(=O)Nc3ccc(C(F)(F)F)cc3)cc2)C1` (stereo not given) is 1630 nM; for `COc1cc(C(=O)N2CCOC(CCN3CCC[C@H]3C(=O)Nc3ccccc3)(c3ccc(Cl)c(Cl)c3)C2)cc(OC)c1OC` (stereo not given in full) it is 733 nM; for `CN(CCN)Cc1cccc(-c2cccc(-c3nc4cc(F)ccc4[nH]3)c2)c1` it is 785 nM.
`Fc1ccccc1CNc1ncc(-c2ccsc2)c(-c2nccs2)n1` had an XC50 of 54 nM.
In the case of `O=C(Nc1cccnc1)c1cc(-c2cc(Cl)ccc2O)n[nH]1` it was 719 nM; in that of `Cc1ccc(-n2cc(CNCC3CCN(CCO)CC3)c(-c3ccc(F)cc3)n2)cc1`, 2000 nM; in that of `Cc1cc(N2CCCC2)nc(Nc2ccc(NC(=O)Cc3ccccc3)cc2)n1`, 606 nM.
In the case of `CN1CCN(c2ccnc3ccc(NC(=O)Cc4ccc(OCc5ccccc5)cc4)cc23)CC1`, the XC50 amounted to 628 nM.
Regarding `Cc1cc(NCCC(=O)NCCOc2ccccc2)nc(NCCOc2ccccc2)n1`, the XC50 came out at 867 nM.
In turn, `Cc1cccc(Cl)c1S(=O)(=O)N1CCCCC(c2ccc(C(F)(F)F)cc2)=N1` showed an XC50 of 216 nM.
On to `Cn1ccnc1CNC(=O)c1ccc(-c2cccc(-c3nc4cc(F)ccc4[nH]3)c2)cc1`, for which the XC50 was 980 nM.
In turn, `CN(CCN)Cc1ccc(-c2ccc(-c3nc4cc(F)ccc4[nH]3)s2)cc1` displayed an XC50 of 1070 nM.
In turn, `CCCCC1(NC(=O)[C@H](CC(C)C)Nc2ccc(C#N)c3ccccc23)CCCCC1` came in with an XC50 of 799 nM.
